Where two headings read alike, the source gives them in different places.
Legend:
[1] = target: T1, D2-like autoreceptors (rat brain striatal minces, [3H]-DA synthesis) (Rattus norvegicus, UniProt P61169)
[2] = system: D2 receptors; settings: ref Clark et al., 1985; Burris et al., 2002; Tadori et al., 2005; cited from earlier work
[3] = target: T1, D2-like autoreceptors (rat brain striatal minces, [3H]-DA synthesis); experiment: cell-based

T1 sequence (P61169 1-415 isoform P61169-2): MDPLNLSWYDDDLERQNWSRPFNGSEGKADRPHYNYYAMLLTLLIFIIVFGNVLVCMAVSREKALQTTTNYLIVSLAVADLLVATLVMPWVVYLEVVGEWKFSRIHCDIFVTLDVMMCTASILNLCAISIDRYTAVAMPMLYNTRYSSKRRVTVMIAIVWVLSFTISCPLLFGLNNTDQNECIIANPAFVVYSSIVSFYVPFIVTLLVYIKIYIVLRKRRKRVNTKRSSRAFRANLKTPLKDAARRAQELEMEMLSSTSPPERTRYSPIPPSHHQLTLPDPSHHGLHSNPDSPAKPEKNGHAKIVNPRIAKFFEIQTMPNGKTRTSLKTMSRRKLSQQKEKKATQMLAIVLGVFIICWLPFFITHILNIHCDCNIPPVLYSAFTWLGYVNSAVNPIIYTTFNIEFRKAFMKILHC

Compound | blockade of QUIN decrease of DA synthesis by antagonist ([1]; 2mM K+, data not shown) | reversal of decrease in DA synthesis elicited by 1nM S-(-)-PPP ([1]; sulpiride 100nM) | blockade of effect of ARI 1 µM on DA synthesis ([1]; sulpiride 1 µM, 2mM K+) | blockade of inhibitory effect of ARI 10nM on DA synthesis ([1]; sulpiride 1 µM, 2mM K+) | reported affinity for D2 receptors [2] | Emax ([3]; read-out: Emax, inhibition of [3H]-dopamine synthesis, basal 2mM K+) | Emax ([3]; read-out: Emax, inhibition of [3H]-dopamine synthesis, stimulated 15mM K+) | Emax ([3]; read-out: maximal effect on DA synthesis, 2mM K+) | Emax ([3]; read-out: maximal effect on DA synthesis, 15mM K+)
CCN1CCC[C@H]1CNC(=O)c1cc(S(N)(=O)=O)ccc1OC [sulpiride, (S)-(-)-sulpiride] | totally blocked | completely reversed | partially blocked | fully eliminated | – | – | – | – | –
CCCN1CCC[C@@H](c2cccc(O)c2)C1 [Preclamol (S-(-)-PPP), (-)-3-(3-hydroxyphenyl)-N-n-propylpiperidine] | – | – | – | – | high-nanomolar/low-micromolar range | 34% | 31% | -34% | -31%

Source: publication PMC4360222 (International Journal of Neuropsychopharmacology, 2015)
